Article PMC11855478, “Bicyclic N,S-Acetals Containing Fused Cysteine-Amide System as New Heterocyclic Class Targeting Human Farnesyltransferase (FTase-h)” (International Journal of Molecular Sciences, 2025)

Key:
Format in all cases: cell-based, human
[1] = test system: COLO 205 (Colon Cancer); experiment: NCI one dose, COLO 205; details: COLO 205, 1.00E-5 Molar one dose
Method: (§1) 3.4. Cell Proliferation Assay
(§2) Selected compounds were tested on a panel of 60 human cancer cell lines at the National Cancer Institute (NCI), Germantown, MD, USA. The cytotoxicity studies were conducted using a 48 h exposure protocol using the sulfo-rhodamine B assay.

[2] = test system: TK-10 (Renal Cancer); experiment: NCI one dose, TK-10; details: TK-10, 1.00E-5 Molar one dose
Procedure, shortened: (§3)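 48 h continuous compound exposure in the NCI 60 human cancer cell line screen, followed by sulforhodamine B measurement of cytotoxicity.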

[3] = test system: NCI-H460 (Non-Small Cell Lung Cancer); experiment: NCI one dose, NCI-H460; details: NCI-H460, 1.00E-5 Molar one dose
Method: as §1, §2

[4] = test system: OVCAR-3 (Ovarian Cancer); experiment: NCI one dose, OVCAR-3; details: OVCAR-3, 1.00E-5 Molar one dose
Procedure, shortened: as §3

[5] = test system: HOP-92 (Non-Small Cell Lung Cancer); experiment: NCI one dose, HOP-92; details: HOP-92, 1.00E-5 Molar one dose
Procedure, shortened: as §3

[6] = test system: LOX IMVI (Melanoma); experiment: NCI one dose, LOX IMVI; details: 1.00E-5 Molar one dose
Procedure, shortened: as §3

[7] = test system: NCI/ADR-RES (Ovarian Cancer); experiment: NCI one dose, NCI/ADR-RES; details: 1.00E-5 Molar one dose
Procedure, shortened: as §3

[8] = test system: SF-539 (CNS Cancer); experiment: NCI one dose, SF-539; details: SF-539, 1.00E-5 Molar one dose
Procedure, shortened: as §3

[9] = test system: 786-0 (Renal Cancer); experiment: NCI one dose, 786-0; details: 786-0, 1.00E-5 Molar one dose
Procedure, shortened: as §3

[10] = test system: OVCAR-4 (Ovarian Cancer); experiment: NCI one dose, OVCAR-4; details: OVCAR-4, 1.00E-5 Molar one dose
Procedure, shortened: as §3

[11] = test system: K-562 leukaemia cells; experiment: NCI one dose, K-562; details: for Growth Percent: K-562, 1.00E-5 Molar one dose
Procedure, shortened: as §3

[12] = test system: SNB-19 (CNS Cancer); experiment: NCI one dose, SNB-19; details: SNB-19, 1.00E-5 Molar one dose
Procedure, shortened: as §3

[13] = test system: T-47D (Breast Cancer); experiment: NCI one dose, T-47D; details: 1.00E-5 Molar one dose
Method: as §1, §2

[14] = test system: OVCAR-5 (Ovarian Cancer); experiment: NCI one dose, OVCAR-5; details: OVCAR-5, 1.00E-5 Molar one dose
Procedure, shortened: as §3

[15] = test system: M14 (Melanoma); experiment: NCI one dose, M14; details: M14, 1.00E-5 Molar one dose
Procedure, shortened: as §3

[16] = test system: NCI-H322M (Non-Small Cell Lung Cancer); experiment: NCI one dose, NCI-H322M; details: 1.00E-5 Molar one dose
Procedure, shortened: as §3

[17] = test system: HS 578T (Breast Cancer); experiment: NCI one dose, HS 578T; details: 1.00E-5 Molar one dose
Procedure, shortened: as §3

[18] = test system: KM12 (Colon Cancer); experiment: NCI one dose, KM12; details: KM12, 1.00E-5 Molar one dose
Procedure, shortened: as §3

[19] = test system: OVCAR-8 (Ovarian Cancer); experiment: NCI one dose, OVCAR-8; details: OVCAR-8, 1.00E-5 Molar one dose
Procedure, shortened: (§4)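 Compounds were screened in the NCI 60-cell-line human cancer panel with a 48 h exposure; cytotoxicity was read by sulforhodamine B staining.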

[20] = test system: SK-MEL-5 (Melanoma); experiment: NCI one dose, SK-MEL-5; details: SK-MEL-5, 1.00E-5 Molar one dose
Procedure, shortened: as §3

[21] = test system: SW-620 (Colon Cancer); experiment: NCI one dose, SW-620; details: SW-620, 1.00E-5 Molar one dose
Procedure, shortened: as §3

[22] = test system: MDA-MB-231/ATCC (Breast Cancer); experiment: NCI one dose, MDA-MB-231/ATCC; details: 1.00E-5 Molar one dose
Procedure, shortened: as §3

[23] = test system: UACC-62 (Melanoma); experiment: NCI one dose, UACC-62; details: UACC-62, 1.00E-5 Molar one dose
Procedure, shortened: as §3

[24] = test system: EKVX (Non-Small Cell Lung Cancer); experiment: NCI one dose, EKVX; details: 1.00E-5 Molar one dose
Procedure, shortened: as §3

[25] = test system: SK-OV-3 (Ovarian Cancer); experiment: NCI one dose, SK-OV-3; details: SK-OV-3, 1.00E-5 Molar one dose
Procedure, shortened: as §3

[26] = test system: RXF 393 (Renal Cancer); experiment: NCI one dose, RXF 393; details: RXF 393, 1.00E-5 Molar one dose
Procedure, shortened: as §3

[27] = test system: BT-549 (Breast Cancer); experiment: NCI one dose, BT-549; details: BT-549, 1.00E-5 Molar one dose
Procedure, shortened: as §3

[28] = test system: HT29 (Colon Cancer); experiment: NCI one dose, HT29; details: HT29, 1.00E-5 Molar one dose
Procedure, shortened: as §3

[29] = test system: CCRF-CEM (Leukemia); experiment: NCI one dose, CCRF-CEM; details: 1.00E-5 Molar one dose
Procedure, shortened: as §3

[30] = test system: CAKI-1 (Renal Cancer); experiment: NCI one dose, CAKI-1; details: CAKI-1, 1.00E-5 Molar one dose
Procedure, shortened: as §3

[31] = test system: UO-31 renal cancer cells; experiment: NCI one dose, UO-31; details: for Growth Percent: UO-31, 1.00E-5 Molar one dose
Procedure, shortened: as §3

[32] = test system: NCI-H522 non-small cell lung cancer cells; experiment: NCI cell proliferation, NCI-H522; details: for inhibition at 10 µM: read-out: % Cancer cell growth Inhibition (NCI-H522); for Growth Percent: NCI-H522, 1.00E-5 Molar one dose
Procedure, shortened: as §4

[33] = test system: SR (Leukemia); experiment: NCI one dose, SR; details: 1.00E-5 Molar one dose
Method: as §1, §2

## COc1ccc(CNC(=O)[C@@H]2CS[C@@]3(C)c4ccccc4C(=O)N23)cc1OC [4bI]
[1]
  Growth Percent: 107.68%
[2]
  Growth Percent: 95.68%
[3]
  Growth Percent: 103.23%
[4]
  Growth Percent: 110.84%
[5]
  Growth Percent: 93.76%
[6]
  Growth Percent: 100.38%
[7]
  Growth Percent: 100.18%
[8]
  Growth Percent: 99.30%
[9]
  Growth Percent: 107.06%
[10]
  Growth Percent: 91.78%
[11]; Homo sapiens, K562, 10 µM single dose, read-out: inhibition of growth of K-562 leukaemia cells
  inhibition at 10 µM: 34%
[11]
  Growth Percent: 66.10%
[12]
  Growth Percent: 96.85%
[13]
  Growth Percent: 71.47%
[14]
  Growth Percent: 111.28%
[15]
  Growth Percent: 107.68%
[16]
  Growth Percent: 96.18%
[17]
  Growth Percent: 94.35%
[18]
  Growth Percent: 102.81%
[19]
  Growth Percent: 91.42%
[20]
  Growth Percent: 88.12%
[21]
  Growth Percent: 101.58%
[22]
  Growth Percent: 98.00%
[23]
  Growth Percent: 79.36%
[24]
  Growth Percent: 107.62%
[25]
  Growth Percent: 103.22%
[26]
  Growth Percent: 104.59%
[27]
  Growth Percent: 110.79%
[28]
  Growth Percent: 77.04%
[29]
  Growth Percent: 81.76%
[30]
  Growth Percent: 89.36%
[31]; Homo sapiens, UO-31, 10 µM single dose, read-out: inhibition of growth of UO-31 renal cancer cells
  inhibition at 10 µM: 20%
[31]
  Growth Percent: 79.77%
[32]; Homo sapiens, NCI-H522
  GI50: 12.9 µM
  inhibition at 10 µM: 45%
[32]
  Growth Percent: 54.70%
[33]
  Growth Percent: 75.23%

## C[C@@]12SC[C@@H](C(=O)NCc3ccccc3)N1C(=O)c1ccccc12 [4bA]
[1]
  Growth Percent: 108.00%
[2]
  Growth Percent: 85.29%
[3]
  Growth Percent: 111.12%
[4]
  Growth Percent: 119.90%
[5]
  Growth Percent: 83.94%
[6]
  Growth Percent: 101.57%
[7]
  Growth Percent: 98.79%
[8]
  Growth Percent: 95.44%
[9]
  Growth Percent: 101.14%
[10]
  Growth Percent: 102.82%
[11]
  Growth Percent: 91.39%
[12]
  Growth Percent: 100.20%
[13]
  Growth Percent: 90.12%
[14]
  Growth Percent: 97.87%
[15]
  Growth Percent: 101.98%
[16]
  Growth Percent: 96.63%
[17]
  Growth Percent: 100.47%
[18]
  Growth Percent: 102.18%
[19]
  Growth Percent: 90.77%
[20]
  Growth Percent: 102.19%
[21]
  Growth Percent: 108.38%
[22]
  Growth Percent: 99.53%
[23]
  Growth Percent: 97.03%
[24]
  Growth Percent: 104.65%
[25]
  Growth Percent: 102.08%
[26]
  Growth Percent: 108.00%
[27]
  Growth Percent: 106.90%
[28]
  Growth Percent: 80.95%
[29]
  Growth Percent: 95.36%
[30]
  Growth Percent: 89.87%
[31]
  Growth Percent: 99.51%
[32]; Homo sapiens, NCI-H522
  inhibition at 10 µM: 25%
[32]
  Growth Percent: 74.90%
[33]
  Growth Percent: 78.43%

## COc1cccc(CNC(=O)[C@@H]2CS[C@H]3c4ccccc4C(=O)N23)c1 [4aE]
[1]
  Growth Percent: 112.81%
[2]
  Growth Percent: 89.04%
[3]
  Growth Percent: 113.41%
[4]
  Growth Percent: 104.00%
[5]
  Growth Percent: 99.32%
[6]
  Growth Percent: 102.67%
[7]
  Growth Percent: 106.48%
[8]
  Growth Percent: 110.14%
[9]
  Growth Percent: 102.72%
[10]
  Growth Percent: 112.11%
[11]
  Growth Percent: 85.13%
[12]
  Growth Percent: 104.75%
[13]
  Growth Percent: 103.32%
[14]
  Growth Percent: 113.91%
[15]
  Growth Percent: 107.40%
[16]
  Growth Percent: 105.81%
[17]
  Growth Percent: 98.68%
[18]
  Growth Percent: 100.40%
[19]
  Growth Percent: 100.28%
[20]
  Growth Percent: 106.50%
[21]
  Growth Percent: 108.22%
[22]
  Growth Percent: 107.16%
[23]
  Growth Percent: 102.11%
[24]
  Growth Percent: 111.45%
[25]
  Growth Percent: 110.57%
[26]
  Growth Percent: 101.84%
[27]
  Growth Percent: 110.89%
[28]
  Growth Percent: 89.79%
[29]
  Growth Percent: 102.31%
[30]
  Growth Percent: 96.42%
[31]
  Growth Percent: 97.14%
[32]; Homo sapiens, NCI-H522
  inhibition at 10 µM: 26%
[32]
  Growth Percent: 74.09%
[33]
  Growth Percent: 84.95%
